Data set [1] concerns the target T1, human α1A adrenergic receptor (Homo sapiens, UniProt P35348).
T1 construct: expressed in transfected cells; host or cells: HEK293 cells, pcDNA3.1(−), hygromycin B selection
T1 sequence (P35348 1-466): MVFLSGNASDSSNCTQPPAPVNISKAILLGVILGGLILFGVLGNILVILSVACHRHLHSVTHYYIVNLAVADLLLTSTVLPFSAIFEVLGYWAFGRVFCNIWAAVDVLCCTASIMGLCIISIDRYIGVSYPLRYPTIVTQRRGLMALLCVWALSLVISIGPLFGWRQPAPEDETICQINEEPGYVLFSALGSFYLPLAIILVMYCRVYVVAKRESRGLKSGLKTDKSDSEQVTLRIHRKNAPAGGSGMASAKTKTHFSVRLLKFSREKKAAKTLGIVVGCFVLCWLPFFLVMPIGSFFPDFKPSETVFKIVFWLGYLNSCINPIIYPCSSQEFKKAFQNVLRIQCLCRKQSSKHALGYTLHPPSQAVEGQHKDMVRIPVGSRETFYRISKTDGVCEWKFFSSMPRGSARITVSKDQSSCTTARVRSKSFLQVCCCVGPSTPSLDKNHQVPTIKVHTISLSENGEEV
Briefly: Test Example 4: human α1A adrenergic receptor agonist activity (Ca flux, Fura-2, transfected HEK293 cells). The format is cell-based. The following applies: for Emax: HEK293, read-out: α1A receptor I.A.; for α1A receptor I.A.: maximum response to norepinephrine taken as 100%. On the procedure:
Measurement of Human α1A Adrenergic Receptor Agonist Activity
The measurement of human α1A adrenergic receptor agonist activity is carried out using HEK293 cells transfected with pcDNA3.1(−) (manufactured by Invitrogen, Inc.) to which human α1A gene has been inserted. These cells are cultured in DMEM medium containing 10% fetal bovine serum, 400 μg/ml hygromycin B (manufactured by Gibco BRL), 100 U/ml penicillin and 100 μg/ml streptomycin. […] The cells are loaded in a CO2 incubator for 30 minutes, and then are washed twice with the Assay Buffer to remove excess Fura-2AM. The cells are centrifuged, and then are prepared into a solution at 5×10^6 cells/ml with the Assay Buffer. Subsequently, the cells are dispensed on a 96-well plate (manufactured by Corning, Inc.) at a volume of 80 μl/well, and the plate is used as a cell plate. […] Subsequently, measurement of fluorescence intensity (excitation wavelength 340 nm and 380 nm, measurement wavelength 500 nm) is initiated at an interval of 2 seconds. After making measurements for about 30 seconds, 20 μl of the test sample from the sample plate is added to the cell plate, and measurements are further continued for 270 seconds. The Ca flux resulting from the test compound is calculated utilizing the difference between the maximum value of fluorescence intensity ratio at the wavelengths 340 nm and 380 nm after the addition of the test compound, and the fluorescence intensity ratio before the addition of the test compound, as the peak height.

The test system of data set [2] is rat under pentobarbital anesthesia. Briefly: Test Example 9: effect on blood pressure and heart rate of rat under pentobarbital anesthesia. The format is in vivo. As to conditions: 3 mg/kg intravenous, male SD rat, average value ± standard error of largest change. As to the method: Effect on Blood Pressure and Heart Rate of Rat Under Pentobarbital Anesthesia
The effect of intravenous bolus administration of a test compound exerted on the blood pressure and heart rate can be investigated by measuring the blood pressure and heart rate of a rat under pentobarbital anesthesia. 50 mg/kg of pentobarbital sodium (manufactured by Tokyo Chemical Industry Co., Ltd.) is intraperitoneally administered to a male SD rat (supplied by Japan SLC, Inc.) to induce anesthesia, and then 25 mg/kg of pentobarbital sodium is subcutaneously administered to maintain anesthesia. The left femoral vein is exposed and detached, and then a polyethylene tube SP10 (connected to a three-way stopcock via a ¼ vein needle) filled with physiological saline is inserted and placed in the vein.
The inner side of the left femur is incised, and the femoral artery is exposed and detached. A polyethylene tube (SP31, connected to a three-way stopcock via a Terumo injection needle 22G) filled with heparized physiological saline is inserted in the artery, and is connected to a pressure transducer. The blood pressure is measured from the pressure transducer through a pressure amplifier (AP-641G, Nihon Koden Corp.). The heart rate is measured by the Heart Rate Counter (AT-601G, Nihon Koden Corp.), using the pulse wave of the blood pressure as the trigger. The blood pressure, mean blood pressure and heart rate are outputted to a recorder and recorded. Here, the mean blood pressure is recorded by a pressure amplifier (AP-641G) according to the formula: {diastolic blood pressure+(systolic blood pressure−diastolic blood pressure)/3 }.
Measurement of the blood pressure and heart rate is initiated, and it is checked that the respective values are almost constant. 3 mg/kg of the test compound is administered through the left femoral vein for 30 seconds. Specifically, 3 mg/mL of the test compound is rapidly administered at a dose volume of 1 mL/kg. The relative values of the values of average blood pressure and heart rate at each time point with respect to the same values obtained before the initiation of administration, are determined for each individual, and the average value±standard error of the relative values (%) obtainable when each parameter changes the most, is determined.

The target of data set [3] is T2, human β2 adrenergic receptor (Homo sapiens, UniProt P07550).
T2 construct: expressed in transfected cells; host or cells: CHO (Chinese Hamster Ovary) cells, pcDNA3
T2 sequence (P07550 whole entry): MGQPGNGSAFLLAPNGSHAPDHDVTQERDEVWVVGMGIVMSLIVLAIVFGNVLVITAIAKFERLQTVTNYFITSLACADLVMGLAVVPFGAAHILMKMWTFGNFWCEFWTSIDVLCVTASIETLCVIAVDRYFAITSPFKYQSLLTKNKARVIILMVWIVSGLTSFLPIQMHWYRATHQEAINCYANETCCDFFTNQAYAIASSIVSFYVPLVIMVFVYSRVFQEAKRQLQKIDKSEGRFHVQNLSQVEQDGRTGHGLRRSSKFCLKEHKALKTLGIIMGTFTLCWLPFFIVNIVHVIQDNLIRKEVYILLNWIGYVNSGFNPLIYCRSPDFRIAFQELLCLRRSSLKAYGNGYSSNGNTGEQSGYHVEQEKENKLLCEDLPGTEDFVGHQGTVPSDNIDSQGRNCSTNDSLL
The data set is described as follows: Test Example 3-B: human β2 adrenergic receptor agonist activity (method of Test Example 1-B). The format is cell-based. The following applies: for β2 receptor EC50: Table 2, Test Example 3-B; for Emax: read-out: β2 receptor I.A. On the procedure:
[Worded in the source for another target; this target is reported under the same test.] The measurement of human β3 adrenergic receptor agonist activity is carried out using CHO (Chinese Hamster Ovary) cells transfected with pcDNA3 (manufactured by Invitrogen, Inc.) to which human β3 gene has been inserted. […] This human β3 cDNA fragment is used as a probe, and the full length human β3 gene is obtained from a human genomic library (manufactured by Clontech Laboratories, Inc.). The above cells are cultured in Ham's F-12 medium containing 10% fetal bovine serum and 400 μg/ml geneticin (manufactured by Invitrogen, Inc.). These cells are seeded on a 96-well plate to a concentration of 2×10^4 cells/well, and after being cultured for about 20 hours, the cells are left to stand in 80 μL of serum-free Ham's F-12 medium for 15 minutes. A test compound is initially dissolved in DMSO, and then is diluted stepwise with Ham's F-12 containing 100 mmol/L HEPES and 1 mmol/L isobutylmethylxanthine. 20 μL of the dilution is added to the cells. After the cells are cultured for 30 minutes, the medium is removed. 0.3. ml of the Assay/lysis Buffer included in cAMP-Screen kit (manufactured by Applied Biosystems, Inc.) is added to the cells, and the cells are incubated at 37° C. for 30 minutes. The resulting cell lysate is subjected to quantification of cAMP with the cAMP-Screen kit. […] Measurement of Human β2 Adrenergic Receptor Agonist Activity

Where [4] appears, read: Table 1, Test Example 4, read-out: α1A receptor EC50.
The mark [5] stands for this setting: Table 2, Test Example 4, read-out: α1A receptor EC50.

Results on ten compounds are retold here after patent US8008506B2, “Indazole compounds” (priority 2008, dated 2011).

Like-named read-outs stand apart in the source and are kept apart here. Where only a bound is given, the exact number is not on record here.

The EC50 is the midpoint of the concentration-response curve.

For `CC(C)c1n[nH]c2cc(OCCNC[C@H](O)c3cccc(NS(C)(=O)=O)c3)ccc12` [Example 1, (R)-N-(3-(1-hydroxy-2-(2-(3-isopropylindazol-6-yloxy)ethylamino)ethyl)phenyl)methanesulfonamide], in data set [1], the EC50 is over 2 µM and the Emax turned out to be 8%. Moreover, in data set [2], the “increase in MBP (%)” value is recorded as 4.7 ± 2.1%. Moreover, in data set [3], the “β2 receptor EC50” value is recorded as “a)” and the Emax amounted to 6.7%.

Regarding `CCc1n[nH]c2cc(OCCNC[C@H](O)c3cccc(NS(C)(=O)=O)c3)ccc12` [Example 2, (R)-N-(3-(1-hydroxy-2-(2-(3-ethylindazol-6-yloxy)ethylamino)ethyl)phenyl)methanesulfonamide], the EC50 in data set [1] was found to be 0.855 µM; in data set [1] (read-out: α1A receptor EC50, Table 2, Test Example 4) it was 0.855 µM. Further, the Emax was 24% in data set [1] and 4.3% in data set [3]. Moreover, in data set [1] (Table 2), the “α1A receptor I.A.” value is reported as 24%. Further, the “increase in MBP (%)” value in data set [2] turned out to be 3.1 ± 0.5%. The “β2 receptor EC50” value in data set [3] is “a)”.

Take `CCCc1n[nH]c2cc(OCCNC[C@H](O)c3cccc(NS(C)(=O)=O)c3)ccc12` [Example 3, (R)-N-(3-(1-hydroxy-2-(2-(3-propylindazol-6-yloxy)ethylamino)ethyl)phenyl)methanesulfonamide]: the values for the Emax in data set [1] and in data set [3] were 0% and 2%, respectively. Besides, the EC50 in data set [1] (setting [4]) and in data set [1] (setting [5]) was over 2 µM throughout. Moreover, the “α1A receptor I.A.” value in data set [1] (Table 2) was 0%. In addition, the “increase in MBP (%)” value in data set [2] is on record as 3.4 ± 3.7%. In data set [3], the “β2 receptor EC50” value is recorded as “a)”.

In the case of `CS(=O)(=O)Nc1cccc([C@@H](O)CNCCOc2ccc3c(C(F)(F)F)n[nH]c3c2)c1` [Example 4, (R)-N-(3-(1-hydroxy-2-(2-(3-trifluoromethylindazol-6-yloxy)ethylamino)ethyl)phenyl)methanesulfonamide], in data set [1], the 50% effective concentration (EC50) amounted to 0.892 µM and the Emax amounted to 40%. Moreover, in data set [2], the “increase in MBP (%)” value was 3.1 ± 2.1%. For the same compound, in data set [3], the “β2 receptor EC50” value is recorded as “a)” and the Emax was determined as 2.4%.

As for `CN(C)C(=O)CCc1n[nH]c2cc(OCCNC[C@H](O)c3cccc(NS(C)(=O)=O)c3)ccc12` [Example 5, (R)-3-(6-(2-(2-hydroxy-2-(3-(methylsulfonamido)phenyl)ethylamino)ethoxy)-indazol-3-yl)-N,N-dimethylpropanamide], the Emax in data set [1] amounted to 47%. Moreover, the EC50 in data set [1] (setting [4]) amounted to 0.836 µM. Besides, the “α1A receptor I.A.” value in data set [1] (Table 2) stood at 47%. Further, the “increase in MBP (%)” value in data set [2] was found to be 3.4 ± 2.2%. In data set [3], the “β2 receptor EC50” value is reported as “a)” and the Emax is 5.4%.

In the case of `COCc1n[nH]c2cc(OCCNC[C@H](O)c3cccc(NS(C)(=O)=O)c3)ccc12` [Example 6, (R)-N-(3-(1-hydroxy-2-(2-(3-methoxymethylindazol-6-yloxy)ethylamino)ethyl)phenyl)methanesulfonamide], the Emax in data set [1] stood at 20%. The EC50 in data set [1] (setting [4]) is over 2 µM. For the same compound, the “increase in MBP (%)” value in data set [2] was found to be 2.8 ± 1.1%.

With `CCc1n[nH]c2cc(OCCNC[C@H](O)c3ccc(F)c(NS(C)(=O)=O)c3)ccc12` [Example 8, (R)-N-(5-(2-(2-(3-ethylindazol-6-yloxy)ethylamino)-1-hydroxyethyl)-2-fluorophenyl)methanesulfonamide], the Emax in data set [1] was 5%. In data set [1] (setting [5]), the EC50 is over 2 µM. In data set [2], the “increase in MBP (%)” value is reported as 0.4 ± 0.5%. In data set [3], the “β2 receptor EC50” value is on record as “a)” and the Emax was 11%.

Consider `CCc1n[nH]c2cc(OCCNC[C@H](O)c3ccc(Cl)c(NS(C)(=O)=O)c3)ccc12` [Example 9, (R)-N-(2-chloro-5-(2-(2-(3-ethylindazol-6-yloxy)ethylamino)-1-hydroxyethyl)phenyl)methanesulfonamide], for which the Emax in data set [1] was 11%; in data set [3], 8%. The half-maximal effective concentration (EC50) in data set [1] (setting [5]) is over 2 µM. Also, in data set [2], the “increase in MBP (%)” value is 1.7 ± 2.7%. The “β2 receptor EC50” value in data set [3] was “a)”.

Turning to `CS(=O)(=O)Nc1cc([C@@H](O)CNCCOc2ccc3c(C(F)(F)F)n[nH]c3c2)ccc1Cl` [Example 11, (R)-N-(2-chloro-5-(1-hydroxy-2-(2-(3-(trifluoromethyl)indazol-6-yloxy)ethylamino)ethyl)phenyl)methanesulfonamide], the Emax in data set [1] stood at 0%. Besides, in data set [1] (setting [5]), the EC50 is over 2 µM. For the same compound, the “increase in MBP (%)” value in data set [2] is on record as 1.8 ± 1.4%. Moreover, in data set [3], the “β2 receptor EC50” value is “a)” and the Emax was 5%.

As for `COc1n[nH]c2cc(OCCNC[C@H](O)c3cccc(NS(=O)(=O)c4ccccc4)c3)ccc12` [Example 16, (R)-N-(3-(1-hydroxy-2-(2-(3-methoxyindazol-6-yloxy)ethylamino)ethyl)phenyl)benzenesulfonamide], the Emax in data set [1] amounted to 0%. In addition, in data set [1] (setting [5]), the EC50 is over 2 µM. Further, in data set [2], the “increase in MBP (%)” value is listed as 6.6 ± 3.2%. In data set [3], the “β2 receptor EC50” value is “a)” and the Emax worked out at 3%.
